# According to ChEMBL document CHEMBL3627636, “Novel bivalent inhibitors with sub-nanomolar affinities towards human glyoxalase I” (Bioorg Med Chem Lett, 2015):
# Tests used:
# [1] = target: Hydroxyacylglutathione hydrolase, mitochondrial (Bos taurus, UniProt Q3B7M2); assay: Inhibition of bovine liver glyoxalase 2
# [2] = Solubility of compound; format: physicochemical
# Lactoylglutathione lyase [3] = target: T1, Lactoylglutathione lyase (Homo sapiens, UniProt Q04760); assay: Inhibition of 6-His tagged recombinant human glyoxalase 1 transfected in Escherichia coli BL21 (DE3) assessed as S-D-lactoylglutathione formation by spectrophotometer
# [4] = Inhibition of yeast glyoxalase 1; design: species or system Saccharomyces cerevisiae
# Lactoylglutathione lyase [5] = target: T1, Lactoylglutathione lyase; assay: Inhibition of human glyoxalase 1
# T1 sequence (Q04760 whole entry): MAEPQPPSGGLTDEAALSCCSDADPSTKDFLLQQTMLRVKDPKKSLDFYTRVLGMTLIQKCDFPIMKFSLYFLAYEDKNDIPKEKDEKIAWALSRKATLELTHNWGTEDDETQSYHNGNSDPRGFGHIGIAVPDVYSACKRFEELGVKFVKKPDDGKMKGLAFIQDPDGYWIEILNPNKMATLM
SMILES,Ki [1] [nM],solubility [2] [mg/mL],Ki (Lactoylglutathione lyase [3]) [nM],Ki [4] [nM],Ki (Lactoylglutathione lyase [5]) [nM]
NCCC(=O)NC(CCC(=O)NC(CSC(=O)N(O)c1ccc(Cl)cc1)C(=O)NCC(=O)O)C(=O)O (stereo unspecified),,,,,330
CC(=O)CNC(CCC(=O)NC(CSC(=O)N(O)c1ccc(Cl)cc1)C(=O)NCC(=O)O)C(=O)O (stereo unspecified),,,,,130

# Continued, values first:
Ki [1] [nM],solubility [2] [mg/mL],Ki (Lactoylglutathione lyase [3]) [nM],Ki [4] [nM],Ki (Lactoylglutathione lyase [5]) [nM],SMILES
138,26,1,6900,,O=C(O)CNC(=O)C(CSC(=O)N(O)c1ccc(Br)cc1)NC(=O)CCC(NCCC(=O)OCCOCCOCCOCCNC(=O)CCCCCCC(=O)NCCCOCCOCCOCCCNC(=O)CCCCCCC(=O)NCCOCCOCCOCCOC(=O)CCNC(CCC(=O)NC(CSC(=O)N(O)c1ccc(Br)cc1)C(=O)NCC(=O)O)C(=O)O)C(=O)O (stereo unspecified)
81,32,0.3,3700,,O=C(O)CNC(=O)C(CSC(=O)N(O)c1ccc(Br)cc1)NC(=O)CCC(NCCC(=O)OCCNC(=O)CCNC(=O)CC(=O)NCCNC(=O)CC(=O)NCCC(=O)NCCOC(=O)CCNC(CCC(=O)NC(CSC(=O)N(O)c1ccc(Br)cc1)C(=O)NCC(=O)O)C(=O)O)C(=O)O (stereo unspecified)
,,,,46,CCOC(=O)CCNC(CCC(=O)NC(CSC(=O)N(O)c1ccc(Cl)cc1)C(=O)NCC(=O)O)C(=O)O (stereo unspecified)
